Laboratory results as given in patent publication US4310660A, “Lincomycin compounds” (The Upjohn Company, priority 1980, dated 1982).
Structures can show the parent of a compound that is named as a salt. Where two headings read alike, the source gives them in different places.

Columns and labels:
Peptococcus magnus = assay: MIC vs. anaerobic bacteria, agar dilution; type: cell-based; conditions: Finegoldia magna, UC6258, UC 6258, read-out: Minimal Inhibitory Concentration (MIC)
Staphylococcus aureus = assay: MIC vs. aerobic bacteria, microplate broth-dilution (BHI); type: cell-based; conditions: Staphylococcus aureus, read-out: Minimal Inhibitory Concentration (MIC)
Clostridium bifermentans = assay: MIC vs. anaerobic bacteria, agar dilution; type: cell-based; conditions: Paraclostridium bifermentans, UC6507, UC 6507, read-out: Minimal Inhibitory Concentration (MIC)
[1] = test system: Bacteroides thetaiotaomicon; assay: MIC vs. anaerobic bacteria, agar dilution; type: cell-based; conditions: UC6512, UC 6512, read-out: Minimal Inhibitory Concentration (MIC)
Bacteroides fragilis = assay: MIC vs. anaerobic bacteria, agar dilution; type: cell-based
Clostridium cadaveris = assay: MIC vs. anaerobic bacteria, agar dilution; type: cell-based; conditions: UC6510, UC 6510, read-out: Minimal Inhibitory Concentration (MIC)
[2] = test system: Peptococcus asaccharolyticus; assay: MIC vs. anaerobic bacteria, agar dilution; type: cell-based; conditions: Peptoniphilus asaccharolyticus, UC6214, UC 6214, read-out: Minimal Inhibitory Concentration (MIC)
Fusobacterium varium = assay: MIC vs. anaerobic bacteria, agar dilution; type: cell-based; conditions: UC6052, UC 6052, read-out: Minimal Inhibitory Concentration (MIC)
Clostridium difficile = assay: MIC vs. anaerobic bacteria, agar dilution; type: cell-based; conditions: Clostridioides difficile
[3] = test system: Fusobacterium necrophorum; assay: MIC vs. anaerobic bacteria, agar dilution; type: cell-based; conditions: UC6568, UC 6568, read-out: Minimal Inhibitory Concentration (MIC)
Propionibacterium acnes = assay: MIC vs. anaerobic bacteria, agar dilution; type: cell-based; conditions: Cutibacterium acnes
Clostridium perfringens = assay: microbe, parasite or virus in culture; type: cell-based
Actinomyces naeslundii = assay: MIC vs. anaerobic bacteria, agar dilution; type: cell-based; conditions: UC5920, read-out: Minimal Inhibitory Concentration (MIC)
[4] = test system: Bacteroides melaninogenicus; assay: MIC vs. anaerobic bacteria, agar dilution; type: cell-based; conditions: UC6326, UC 6326, read-out: Minimal Inhibitory Concentration (MIC)
D. pneumoniae I = assay: Mouse Protection Test; type: in vivo; conditions: Streptococcus pneumoniae, 168 h, strain Felton I, read-out: Median Protective Dose (CD50)
Description: (§1) Immediately before use, the suspensions were thawed quickly and properly diluted. Infection was via the intrapertioneal route.
(§2) Treatment of the infected groups was begun immediately and continued once per day for 4 days (first 24 hr period=1). Groups of untreated mice served as virulence controls for the culture.
(§3) Seven days after the treatment regimen was begun the surviving animals were sacrificed and the median protective dose of the antibiotic calculated on the basis of mortality rates in the treatment groups. The median protective dose and its 95% confidence interval were calculated according to the method of Spearmen & Karber as programmed on a 360 digital computer.
(§4) U-60,970E was also tested in vivo in standard laboratory mice which were experimentally infected with bacteria. The test was conducted in comparison with U-57,930E.

D. pneumoniae III = assay: Mouse Protection Test; type: in vivo; conditions: strain MPI III, two experiments listed; for ED50: Streptococcus pneumoniae, 168 h, read-out: Median Protective Dose (CD50); for Median Protective Dose (CD50): 10080 min, listed as U-57930E . Hcl
Description: as §1, §2, §3, §4

Clostridium tertium = assay: MIC vs. anaerobic bacteria, agar dilution; type: cell-based; conditions: UC6508, UC 6508, read-out: Minimal Inhibitory Concentration (MIC)

## CC[C@@H]1CCN[C@H](C(=O)N[C@@H]([C@H]2O[C@H](SC)[C@H](O)[C@@H](O)[C@H]2O)[C@H](C)Cl)C1 [U-57,930E, 4-Cis-ethyl-1-pipecolic acid amide of 7-Cl-MTL.HCl]
Peptococcus magnus
  MIC: 0.06 µg/mL
Staphylococcus aureus; UC76, S. aureus UC 76
  MIC: 0.1 µg/mL
Staphylococcus aureus; UC570, S. aureus UC 570
  MIC: 0.39 µg/mL
Staphylococcus aureus; UC571, S. aureus UC 571
  MIC: 0.78 µg/mL
Staphylococcus aureus; UC746, S. aureus UC 746
  MIC: 0.05 µg/mL
Staphylococcus aureus; UC6675, S. aureus UC 6675
  MIC: 0.39 µg/mL
Staphylococcus aureus; UC6685, S. aureus UC 6685
  MIC: > 25 µg/mL
Staphylococcus aureus; UC6686, S. aureus UC 6686
  MIC: 0.2 µg/mL
Staphylococcus aureus; UC6687, S. aureus UC 6687
  MIC: 0.2 µg/mL
Staphylococcus aureus; UC6688, S. aureus UC 6688
  MIC: > 25 µg/mL
Staphylococcus aureus; UC6689, S. aureus UC 6689
  MIC: 0.78 µg/mL
Staphylococcus aureus; UC6690, S. aureus UC 6690
  MIC: 0.2 µg/mL
Staphylococcus aureus; UC6691, S. aureus UC 6691
  MIC: 0.2 µg/mL
Staphylococcus aureus; UC6692, S. aureus UC 6692
  MIC: > 25 µg/mL
Staphylococcus aureus; UC6693, S. aureus UC 6693
  MIC: 0.78 µg/mL
Staphylococcus aureus; UC6694, S. aureus UC 6694
  MIC: > 25 µg/mL
Staphylococcus aureus; UC6695, S. aureus UC 6695
  MIC: 0.39 µg/mL
Staphylococcus aureus; UC6696, S. aureus UC 6696
  MIC: 0.39 µg/mL
Clostridium bifermentans
  MIC: 0.06 µg/mL
[1]
  MIC: 0.5 µg/mL
Bacteroides fragilis; UC6428, UC 6428, read-out: Minimal Inhibitory Concentration (MIC)
  MIC: 0.25 µg/mL
Bacteroides fragilis; UC6513, UC 6513, read-out: Minimal Inhibitory Concentration (MIC)
  MIC: 0.12 µg/mL
Bacteroides fragilis; UC6862, UC 6862, read-out: Minimal Inhibitory Concentration (MIC)
  MIC: 15.6 µg/mL
Bacteroides fragilis; UC6864, UC 6864, read-out: Minimal Inhibitory Concentration (MIC)
  MIC: 2 µg/mL
Clostridium cadaveris
  MIC: 0.06 µg/mL
[2]
  MIC: 0.25 µg/mL
Fusobacterium varium
  MIC: 3.9 µg/mL
Clostridium difficile; UC6834, UC 6834, read-out: Minimal Inhibitory Concentration (MIC)
  MIC: 3.9 µg/mL
Clostridium difficile; UC6857, UC 6857, read-out: Minimal Inhibitory Concentration (MIC)
  MIC: 125 µg/mL
Clostridium difficile; UC6858, UC 6858, read-out: Minimal Inhibitory Concentration (MIC)
  MIC: 3.9 µg/mL
Clostridium difficile; UC6860, UC 6860, read-out: Minimal Inhibitory Concentration (MIC)
  MIC: 500 µg/mL
Clostridium difficile; UC6861, UC 6861, read-out: Minimal Inhibitory Concentration (MIC)
  MIC: 2 µg/mL
[3]
  MIC: 0.06 µg/mL
Propionibacterium acnes; UC6564, UC 6564, read-out: Minimal Inhibitory Concentration (MIC)
  MIC: 0.12 µg/mL
Propionibacterium acnes; UC6575, UC 6575, read-out: Minimal Inhibitory Concentration (MIC)
  MIC: 0.06 µg/mL
Clostridium perfringens; UC247, read-out: Minimal Inhibitory Concentration (MIC)
  MIC: 0.12 µg/mL
Clostridium perfringens; UC6509, read-out: Minimal Inhibitory Concentration (MIC)
  MIC: 0.12 µg/mL
Actinomyces naeslundii
  MIC: 0.25 µg/mL
[4]
  MIC: 0.06 µg/mL
D. pneumoniae I; oral
  ED50: 15.4 mg/kg
D. pneumoniae I; sc, subcutaneous
  ED50: 1.54 mg/kg
D. pneumoniae III; po, oral
  ED50: 14.4 mg/kg
D. pneumoniae III; sc, subcutaneous
  ED50: 2.68 mg/kg
D. pneumoniae III; oral
  Median Protective Dose (CD50): 16.49 (10.51-25.88) mg/kg
D. pneumoniae III; subcutaneous
  Median Protective Dose (CD50): 2.5 (1.69-3.69) mg/kg
Clostridium tertium
  MIC: 7.8 µg/mL
